Like-named read-outs stand apart in the source and are kept apart here.
Legend:
[1] = system: P. yoelii in HepG2-CD81 cells; design: method as in PMID 25791675; conditions: liver stage of Plasmodium yoelii infecting HepG2-CD81 cells; cited from earlier work
[2] = system: P. falciparum sporozoites invading primary human hepatocytes; assay: Hepatocyte invasion by preincubated P. falciparum sporozoites; conditions: Plasmodium falciparum, Hepatocyte, in Homo sapiens, sporozoites preincubated 1 h; for inhibition at 1 µM: read-out: inhibition of invasion of sporozoites into hepatocytes, 1 μM; for inhibition at 10 µM: read-out: inhibition of invasion of sporozoites into hepatocytes, 10 μM; for inhibition at 100 µM: read-out: inhibition of invasion of sporozoites into hepatocytes, 100 μM
Procedure: (§1) On the day of infection, 3 · 10^4 sporozoites of P. falciparum, P. yoelii, and P. cynomolgi were added to their respective host cell cultures (human, murine, and simian). The infected culture plates were centrifuged for 10 min at 900 × g, allowing fast parasite sedimentation, and further incubated with serial dilutions of M1. Culture medium containing the appropriate drug concentration was refreshed daily, and cells were fixed at 48 h postinfection (p.i.) for infections with P. yoelii, 6 days p.i. for P. falciparum, or 8 days p.i. for P. cynomolgi. For the in vitro sporozoite invasion experiments, P. falciparum sporozoites were preincubated with 1, 10, and 100 μM M1 for 1 h at room temperature before hepatocyte infections. Three hours later, after sporozoite penetration into hepatocytes, cultures were washed and then further incubated with or without the presence of the drug during 6 days. DMSO was used as a negative control.
(§2) The number, size, and shape of the parasites were determined using a CellInsight high-content screening platform equipped with Studio HCS software (ThermoFisher Scientific). […] Host cell and parasite nuclei were labeled with DAPI (4′,6-diamidino-2-phenylindole). […] The custom script used for counting and measuring parasites first required identification of the objects based on a fluorescence intensity threshold. The object identity was then further validated based on size and morphological (shape) criteria. The presence of DAPI-associated fluorescence in the selected objects allowed their final selection and the rejection of false positives. […] The parasitic size reduction was calculated on the average object area using the total surface area of each selected object (μm^2).

[3] = system: P. falciparum F32-ART5 (artemisinin-resistant); assay: Standard in vitro chemosensitivity assay (hypoxanthine uptake), F32-ART5; type: cell-based; conditions: Plasmodium falciparum, F32, 48 h, read-out: Mean EC50 ± SD
Procedure: The Plasmodium falciparum artemisinin-resistant strain F32-ART5 and its twin artemisinin-sensitive line F32-TEM ([30], [31]) were cultivated at 37°C with 5% CO2 in human red blood cells (EFS [French Blood Bank]) diluted to 2% hematocrit in RPMI 1640 medium supplemented with 5% human serum (EFS) as previously reported ([47]).
In vitro susceptibility of P. falciparum parasites was determined by using the standard hypoxanthine uptake inhibition assay as described previously ([51]) with some modifications ([52]). After D-sorbitol treatment, parasites synchronized at the ring stage were exposed for 48 h, with [^3H]hypoxanthine (Perkin Elmer, France), to a range of concentrations of the different tested compounds. […] Each result represents 3 independent experiments.

[4] = system: P. yoelii liver-stage parasites in murine primary hepatocytes; assay: In vitro liver-stage development, P. yoelii in murine primary hepatocytes; type: cell-based, Plasmodium yoelii
Excerpt: P. yoelii 230-GFP-Luc sporozoites are mutant parasites expressing a green fluorescent protein (GFP)-luciferase cassette generated by the gene out marker out (GOMO) strategy ([39]).
Primary human hepatocytes were isolated from liver segments obtained from adult patients undergoing partial hepatectomy (Service de Chirurgie Digestive, Hépato-Bilio Pancréatique, Hôpital Pitié Salpêtrière, Paris, France). Primary simian hepatocytes were isolated from liver segments collected from healthy Macaca fascicularis monkeys from CEA, Fontenay aux Roses, France. All hepatocytes were obtained using collagenase perfusion as previously described ([40]). […] Primary murine hepatocytes were isolated from liver segments collected from BALB/c mice. Human and murine hepatocytes were used directly after their isolation. Cells were seeded in 96-well plates (Falcon; Becton Dickinson Labware Europe, France) coated with collagen I (BD Bioscience, USA) at a density of 80,000 cells per well. […] For human hepatocytes, the complete medium was supplemented with 2% dimethyl sulfoxide (DMSO; Sigma-Aldrich, USA) before infection to preserve their differentiation.
as §1, §2

[5] = system: P. falciparum strain K1 in RBC; assay: In vitro chemosensitivity assay, blood stage P. falciparum K1 (SYBR green I); type: cell-based; conditions: Plasmodium falciparum, K1; erythrocytic stage, 72 h; read-out: EC50 (μM) for P. falciparum strain K1 in RBC
Procedure: Maintenance in continuous culture was done as described previously by Trager and Jensen ([46]). Cultures were maintained in fresh A+ human erythrocytes (EFS [French Blood Bank]) at 2.5% hematocrit in complete medium (RPMI 1640 with 25 mM HEPES, 25 mM NaHCO3, 10% A+ human serum) at 37°C under a reduced-O2 atmosphere (gas mixture of 10% O2, 5% CO2, and 85% N2). Parasitemia was maintained daily between 1% and 3%. The P. falciparum drug susceptibility test was carried out by comparing quantities of DNA in treated and control cultures of parasites in human erythrocytes according to a SYBR green I fluorescence-based method ([50]) using a 96-well fluorescence plate reader. Compounds, previously dissolved in DMSO (final concentration, less than 0.5% vol/vol), were incubated in a total assay volume of 200 μl of synchronized culture suspension (2% hematocrit and 0.4% parasitemia) for 72 h in a humidified atmosphere (85% N2, 10% O2, and 5% CO2) at 37°C in 96-well flat-bottom plates. Duplicate assays were performed for each sample. After incubation, plates were frozen at −20°C for 24 h. Then, the frozen plates were thawed for 1 h at 37°C. Fifteen microliters of each sample was transferred to 96-well flat-bottom black plates (Greiner Bio-one) already containing 15 μl of the SYBR green I lysis buffer (2× SYBR green I, 20 mM Tris base, pH 7.5, 20 mM EDTA, 0.008% [wt/vol] saponin, 0.08% [wt/vol] Triton X-100). […] Plates were incubated for 15 min at 37°C and then read on a Tecan Infinite F-200 spectrophotometer with excitation and emission wavelengths at 485 and 535 nm, respectively. […] EC50K1 values represent the mean values calculated from three independent experiments.

[6] = cultures additionally treated until day 6
[7] = cultures then without drug for 6 days

Q: For `Cc1ccc(-c2cc3nc(NC(C)(C)C)[nH]c(=O)c3s2)cc1` [Metabolite M1, 2-(tert-Butylamino)-6-(p-tolyl)thieno[3,2-d]pyrimidin-4(3H)-one], which EC50 [1] is on record?
A: 35 nM

Q: And the inhibition at 1 µM [2, 6]?
A: 80%

Q: And the inhibition at 1 µM [2, 7]?
A: 30%

Q: What about the inhibition at 10 µM [2, 6] of the same compound?
A: 100%

Q: What about the inhibition at 10 µM [2, 7] of the same compound?
A: 60%

Q: What about the inhibition at 100 µM [2, 6] of the same compound?
A: 100%

Q: What about the inhibition at 100 µM [2, 7] of the same compound?
A: ~100%

Q: And the EC50 [3]?
A: 227 ± 40 nM

Q: And the EC50 ([4]; Plasmodium yoelii, Hepatocyte, P. yoelii in murine primary hepatocytes (MH), mean ± SEM of triplicate experiments, read-out: EC50 against liver-stage parasites)?
A: 450 ± 100 nM

Q: What about the “SI (selectivity index)” value ([4]; hepatocyte CC50/EC50, P. yoelii (MH)) of the same compound?
A: >133

Q: What about the “Size reduction at 10 μM (%)” value ([4]; parasite (schizont) size, 10 μM, P. yoelii (MH)) of the same compound?
A: 100%

Q: And the EC50 [5]?
A: 0.045 µM
